Here are results for 6 compounds from PubChem BioAssay AID1845201 (Molecular Pharmacology Branch, DTP, NCI, 2023).

A word on the viability, T/C: it is the ratio of treated to control. Usually IC50 stands for the concentration that inhibits the measured activity by half. What is called pIC50 is the negative decadic logarithm of the IC50, by convention in mol/L.

pIC50: −log10 of the molar value. Several values for one entry are separate records, joined by “and”; a condition that tells them apart may be missing. Identical values can stand only once.

This assay relates to COR L88 complex tumor spheroid viability. The assay can be described thus: Anticancer human tumor COR L88 cell line growth inhibition.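 As to all read-outs here: compound exposure lasted 7 days before viability readout.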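 As to viability, T/C: percent of DMSO vehicle-treated spheroids = 100%.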 The following applies: for viability, T/C: stronger effect = lower value. In outline: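 Single agents and combinations were tested on spheroids built from tumor cells plus HUVEC and hMSC, at half-log dilutions starting at or near clinical Cmax, else 10 microM; final DMSO 0.25% (v/v).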

Where [1] appears, read: compound alone, run of 10/17/2019.

As to `CC[C@@]1(O)C(=O)OCc2c1cc1n(c2=O)Cc2cc3c(CN(C)C)c(O)ccc3nc2-1`, the viability, T/C (compound 0.00949 µM) was 76% [middle of 10 runs]; the viability, T/C (compound 0.03 µM) was 55% [middle of 10 runs]; the viability, T/C (compound 0.0949 µM) was 52% [middle of 10 runs]; the viability, T/C (compound 0.3 µM) is 48.1% [middle of 10 runs]. Besides, under setting [1], the IC50 was 45.7 nM [middle of 5 runs]. Also, the pIC50 (compound alone, run of 10/25/2019) is < 6.52 and 6.79 and 6.76.

For the compound `Cc1sc2c(c1C)C(c1ccc(Cl)cc1)=NC(CC(=O)Nc1ccc(O)cc1)c1nnc(C)n1-2` (stereo unspecified), the viability, T/C was 93.4% and 99.2% and 89.1% (compound 0.00949 µM); 94.7% and 94.8% and 84.9% (compound 0.03 µM); 103% and 94.4% and 85.7% (compound 0.0949 µM); 63.8% and 67.1% and 47.9% (compound 0.3 µM); 37.4% and 33.8% and 21.4% (compound 0.949 µM); 20.6% and 19.2% and 17.3% (compound 3 µM). The pIC50 (curve of compound) is 6.27 and 6.55.

Consider `COc1cc(C)[nH]c(=O)c1CN1CCc2c(Cl)cc(C(OC)C3COC3)c(Cl)c2C1=O` (stereo unspecified) + Cn1nnc2c(C(N)=O)ncn2c1=O, for which the negative-log IC50 (pIC50) was < 5.00 (curve of first compound, second compound 1 µM); < 5.00 (curve of first compound, second compound 3.16 µM); 6.26 (curve of first compound, second compound 10 µM); 6.95 (curve of first compound, second compound 31.6 µM); > 7.50 (curve of first compound, second compound 100 µM). Besides, the viability, T/C was 76.1% (second compound 1 µM, first compound 0.0316 µM); 75% (second compound 1 µM, first compound 0.1 µM); 71.3% (second compound 1 µM, first compound 0.316 µM); 65.9% (second compound 1 µM, first compound 1 µM); 67.5% (second compound 1 µM, first compound 3.16 µM); 66.6% (second compound 1 µM, first compound 10 µM). Moreover, the viability, T/C (second compound 3.16 µM, first compound 0.0316 µM) is 74%; the viability, T/C (second compound 3.16 µM, first compound 0.1 µM) is 74.8%; the viability, T/C (second compound 3.16 µM, first compound 0.316 µM) was 63.4%; the viability, T/C (second compound 3.16 µM, first compound 1 µM) was 71.6%; the viability, T/C (second compound 3.16 µM, first compound 3.16 µM) is 69.7%; the viability, T/C (second compound 3.16 µM, first compound 10 µM) is 68.7%. Moreover, the viability, T/C (second compound 10 µM, first compound 0.0316 µM) is 62.7%; the viability, T/C (second compound 10 µM, first compound 0.1 µM) is 57.4%; the viability, T/C (second compound 10 µM, first compound 0.316 µM) is 48.8%; the viability, T/C (second compound 10 µM, first compound 1 µM) was 50.3%; the viability, T/C (second compound 10 µM, first compound 3.16 µM) is 46.6%; the viability, T/C (second compound 10 µM, first compound 10 µM) was 43.2%. In addition, the viability, T/C was 55.5% (second compound 31.6 µM, first compound 0.0316 µM); 51.5% (second compound 31.6 µM, first compound 0.1 µM); 39.7% (second compound 31.6 µM, first compound 0.316 µM); 37% (second compound 31.6 µM, first compound 1 µM); 33.3% (second compound 31.6 µM, first compound 3.16 µM); 33.6% (second compound 31.6 µM, first compound 10 µM). For the same compound, the viability, T/C is, setting by setting: (second compound 100 µM, first compound 0.0316 µM) 49%; (second compound 100 µM, first compound 0.1 µM) 43.5%; (second compound 100 µM, first compound 0.316 µM) 37.2%; (second compound 100 µM, first compound 1 µM) 35.3%; (second compound 100 µM, first compound 3.16 µM) 33.3%; (second compound 100 µM, first compound 10 µM) 31.6%.

As to `CNCc1ccc(-c2cc(-c3nc(-c4ccc(S(=O)(=O)C(C)C)cc4)cnc3N)on2)cc1`, the viability, T/C by setting is: (compound 0.00949 µM) 98.5% and 103% and 105%; (compound 0.03 µM) 111% and 118% and 104%; (compound 0.0949 µM) 109% and 107% and 101%; (compound 0.3 µM) 87% and 84.6% and 56.4%; (compound 0.949 µM) 40.9% and 47.2% and 22.6%; (compound 3 µM) 11.8% and 11.3% and 5.68%. Moreover, the pIC50 (curve of compound) is 6.12 and 6.07 and 6.41.

As for `Cn1nnc2c(C(N)=O)ncn2c1=O`, the viability, T/C (compound 1 µM) is 96.2% [middle of 10 runs]; the viability, T/C (compound 3.16 µM) was 96.8% [middle of 10 runs]; the viability, T/C (compound 10 µM) was 95% [middle of 10 runs]; the viability, T/C (compound 31.6 µM) is 84.1% [middle of 10 runs]; the viability, T/C (compound 100 µM) was 70.6% [middle of 10 runs]. In addition, the pIC50 under setting [1] is < 4.00.

Turning to `O=C(c1cc(Cc2n[nH]c(=O)c3ccccc23)ccc1F)N1CCN(C(=O)C2CC2)CC1` + COc1cc2c(cc1O)CCNC21CSC2c3c(OC(C)=O)c(C)c4c(c3C(COC1=O)N1C(O)C3Cc5cc(C)c(OC)c(O)c5C(C21)N3C)OCO4, the pIC50 is 4.84 (curve of first compound, second compound 30 pM); 4.95 (curve of first compound, second compound 94.9 pM); < 4.52 (curve of first compound, second compound 0.0003 µM); 6.17 (curve of first compound, second compound 0.000949 µM); > 7.02 (curve of first compound, second compound 0.003 µM). For the same compound, the viability, T/C is 93.6% (second compound 30 pM, first compound 0.0949 µM); 107% (second compound 30 pM, first compound 0.3 µM); 95% (second compound 30 pM, first compound 0.949 µM); 81.7% (second compound 30 pM, first compound 3 µM); 54.6% (second compound 30 pM, first compound 9.49 µM); 42.4% (second compound 30 pM, first compound 30 µM). Also, the viability, T/C runs as follows: (second compound 94.9 pM, first compound 0.0949 µM) 98.9%; (second compound 94.9 pM, first compound 0.3 µM) 96.4%; (second compound 94.9 pM, first compound 0.949 µM) 101%; (second compound 94.9 pM, first compound 3 µM) 71.8%; (second compound 94.9 pM, first compound 9.49 µM) 54.9%; (second compound 94.9 pM, first compound 30 µM) 43%. For the same compound, the viability, T/C runs as follows: (second compound 0.0003 µM, first compound 0.0949 µM) 74.9%; (second compound 0.0003 µM, first compound 0.3 µM) 63.4%; (second compound 0.0003 µM, first compound 0.949 µM) 64.1%; (second compound 0.0003 µM, first compound 3 µM) 60.6%; (second compound 0.0003 µM, first compound 9.49 µM) 48.5%; (second compound 0.0003 µM, first compound 30 µM) 56.8%. Also, the viability, T/C is 57.2% (second compound 0.000949 µM, first compound 0.0949 µM); 56.2% (second compound 0.000949 µM, first compound 0.3 µM); 42.6% (second compound 0.000949 µM, first compound 0.949 µM); 40.7% (second compound 0.000949 µM, first compound 3 µM); 13.7% (second compound 0.000949 µM, first compound 9.49 µM); 2.22% (second compound 0.000949 µM, first compound 30 µM). Besides, the viability, T/C reads like this: (second compound 0.003 µM, first compound 0.0949 µM) 1.02%; (second compound 0.003 µM, first compound 0.3 µM) 1.05%; (second compound 0.003 µM, first compound 0.949 µM) 0.95%; (second compound 0.003 µM, first compound 3 µM) 1.92%; (second compound 0.003 µM, first compound 9.49 µM) 2.21%; (second compound 0.003 µM, first compound 30 µM) 3.25%.
